{"source": "patent US20100249125A1", "about": "“INHIBITION OF PROSTGLANDIN E2 RECEPTORS FOR THE TREATMENT OF ENDOMETRIOSIS” (THE TEXAS A&M UNIVERSITY SYSTEM, priority 2009, published 2010)", "key": {"[1]": {"system": "human endometriotic stromal cells 22B", "assay": "Cell proliferation assay (Coulter counter)", "assay_type": "cell-based", "details": "22B cells; 0-200 concentration series", "method": "(§1) EP2/EP4 small interfering RNA (siRNA): 12Z and 22B cells (3.0×10^5/well) were cultured in antibiotic-free DMEM/F12 with 10% FBS in six-well tissue culture plates. At 70-80% confluency, cells were used for EP2, EP4 or EP2/EP4 knock-down experiments using SMART-pool siRNA duplex delivered by DharmaFect-1 as described previously (11) and per manufacturer's instructions (Dharmacon Inc, Lafayette, Colo.). As an internal control, MOCK siRNA was used. According to the manufacturer's instructions, SMARTpool siRNA were consisted of at least four individual siRNA duplexes targeted against a specific gene and designed using a bioinformatics technology known as SMARTselection. […] The inventors used SMARTpool siRNA in order to use more than one siRNA duplex from different regions of the gene of interest to avoid non-specific indirect effects of single siRNA duplex to a single region of the target gene. Briefly, siRNA duplexes (100 nM/well) and DharmaFect-1 (3 μl/well) were diluted in 50 μl antibiotic and serum-free DMEM/F12 medium separately and mixed gently and incubated for 5 min at room temperature. Afterwards, EP2, EP4 or EP2/EP4 siRNA and DharmaFect-1 were mixed (total volume 100 μl) and incubated at room temperature for 20 min. Then, 100 μl siRNA: DharmaFect-1 complex was diluted with 2 ml antibiotic-free media with 10% FBS and added to the well. After 24 h, the medium was replaced with fresh DMEM/F12 with 10% FBS and incubated for 24 h. Fluorescence labeled siGLO RISC-free siRNA was transfected separately and transfection efficiency was estimated using a fluorescence microscope. Transfection efficiency more than 80% was considered as optimal conditions for further experiments. Efficiency of siRNA on silencing of EP2 and EP4 genes and proteins was assessed by RT-PCR and western blot, respectively 72 h post-transfection knock-down efficiency was 70-80% in both 12Z and 22B cells.\n(§2) Cell Proliferation Assay: The 12Z and 22B cells (1×10^5/well) were cultured in DMEM/F12 with 10% FBS in six-well plates. At 70%-80% confluency the cells were cultured in DMEM/F12 with 2% dextran charcoal-treated FBS and treated with inhibitors for EP1 (SC19220; […]), EP2 (AH6809; […]), EP4 (AH23848; […]), or a combination of EP2 (AH6809; […]) and EP4 (AH23848; […]) for 36 hours. The concentrations for each inhibitor was determined by dose-response studies using […] and an optimal concentration was selected based on its effects on proliferation of human endometriotic cells (FIGS. 6A-6B). These inhibitors competitively bind with respective receptors and inhibit their functions (40-42). For the siRNA study, 24 hours after transfection of siRNA the medium was replaced and the cells were cultured in 2% dextran charcoal-treated FBS, which was considered as time 0 hour, and cell proliferation was estimated at 36 hours. The number of cells was counted using a Coulter counter (11) and considered as 100% present in control. Data were expressed as mean±SEM of three independent studies conducted in duplicate."}, "[2]": {"system": "human endometriotic epithelial cells 12Z", "assay": "Cell proliferation assay (Coulter counter)", "assay_type": "cell-based", "details": "12Z cells; 0-200 concentration series", "method": "as §1, §2"}, "[3]": {"system": "human endometriotic stromal cells 22B", "assay": "TUNEL apoptosis assay (flow cytometry, fluorescence microscopy)", "assay_type": "cell-based", "details": "22B cells, 24 h; for Induced apoptosis (TUNEL, flow cytometry): AH6809 75 μM, AH23848 50 μM, alone or combined", "method": "(§3) These well-characterized 12Z and 22B cells were cultured in DMEM/F12 without special steroid treatment containing 10% fetal bovine serum (FBS) and penicillin (100 U/ml), streptomycin (100 μg/ml) and amphotericin-B 2.5 μg/ml in a humidified 5% CO2 and 95% air at 37° C. as we described previously (11, 39). At 70-80% confluency the cells were cultured in DMEM/F12 with 2% dextran-charcoal-treated fetal bovine serum (DC-FBS) and treated with EP inhibitors (EP-I) for EP1 (SC19220-100 100 μM), EP2 (AH6809-75 μM) and/or EP4 (AH23848-50 μM) for 24 h.\nas §1\n(§4) Terminal deoxynucleotide transferase dUTP nick end labeling (TUNEL) assay: Non-adherent and adherent cells were harvested, mixed together, and resuspended at the concentrations of 1×10^6 cells/ml. Nicks in the DNA were determined by terminal deoxynucleotidyl transferase (TdT) and 5-bromo-2′-deoxyuridine 5′-triphosphate (BrdUTP) labeling using APO-BrdU TUNEL Assay Kit. Detection of BrdU incorporation at DNA break sites was achieved through Alexa Fluor 488 dye-labeled anti-BrdU antibody. The staining procedures were performed as recommended by manufacturers. Numbers of apoptotic cells were analyzed by a flowcytometer (FACSCaliber, Becton Dickinson, San Jose, Calif.) using Cell Quest software. In addition, the presence of TUNEL labeled DNA fragments were determined by fluorescence microscopy. Digital images were captured using a Zeiss Axioplan 2 Research Microscope with an Axiocam HR digital camera."}, "[4]": {"system": "human endometriotic epithelial cells 12Z", "assay": "TUNEL apoptosis assay (flow cytometry, fluorescence microscopy)", "assay_type": "cell-based", "details": "12Z cells, 24 h; for Induced apoptosis (TUNEL, flow cytometry): AH6809 75 μM, AH23848 50 μM, alone or combined", "method": "as §3, §1, §4"}, "endometriotic lesions": {"system": "endometriotic lesions", "details": "nude mice model; cited from earlier work"}, "endometriotic implant": {"system": "endometriotic implant", "details": "hamster model; through caspase-3 dependent apoptosis; cited from earlier work"}, "[5]": {"system": "human immortalized endometriotic epithelial cells 12Z and stromal cells 22B", "details": "associated with decreased PGE2 production; cited from earlier work"}, "estrogen receptor": {"system": "estrogen receptor", "details": "treatment of endometriosis in women; cited from earlier work"}, "[6]": {"assay": "Cell viability assay (WST-1)", "assay_type": "cell-based, human", "details": "human, AH6809 75 μM, AH23848 50 μM, alone or combined, vs control, read-out: Decrease of cell viability", "method": "(§5) Cell Viability Assay: The 12Z and 22B cells (1.25×10^4 cells/well) were cultured in DMEM/F12 with 10% FBS in 96-well plates and treated as described previously. At the end of the experiments the cell viability (metabolic activity) was determined using a cell proliferation assay kit WST-1 according to the manufacturer's (Roche Applied Sciences) instructions. Metabolic activity recorded in control cells was considered as 100%. Data were expressed as mean±SEM of three independent experiments conducted in triplicate."}, "[7]": {"details": "25 mg/d for 6 months, women with endometriosis; cited from earlier work"}, "[8]": {"system": "COX-2 along with p450 aromatase", "details": "3.75 mg, for 1 month; eutopic endometria; cited from earlier work"}, "[9]": {"system": "human endometriotic stromal cells 22B", "assay": "Cell viability assay (WST-1)", "assay_type": "cell-based", "details": "22B cells; AH6809 75 μM, AH23848 50 μM, alone or combined; vs control", "method": "as §5"}, "[10]": {"system": "human endometriotic epithelial cells 12Z", "assay": "Cell viability assay (WST-1)", "assay_type": "cell-based", "details": "12Z cells; AH6809 75 μM, AH23848 50 μM, alone or combined; vs control", "method": "as §5"}}, "note": "Entries after “also recorded” stand apart in the source; their conditions may differ. Like-named read-outs stand apart in the source and are kept apart here.", "data": [{"smiles": "CC(=O)NNC(=O)N1Cc2ccccc2Oc2ccc(Cl)cc21", "note": "[SC19220]", "values": [{"measurement": "Proliferation, dose response experiment", "setting": "[1]", "result": "did not decrease proliferation"}, {"measurement": "Proliferation, dose response experiment", "setting": "[2]", "result": "did not decrease proliferation"}, {"measurement": "Induction of apoptosis (TUNEL)", "setting": "[3]; SC19220 100 μM", "result": "did not induce apoptosis"}, {"measurement": "Induction of apoptosis (TUNEL)", "setting": "[4]; SC19220 100 μM", "result": "did not induce apoptosis"}]}, {"smiles": "CS(=O)(=O)Nc1ccc([N+](=O)[O-])cc1Oc1ccccc1", "note": "[nimesulide]", "values": [{"measurement": "Number and size of endometriotic lesions", "setting": "endometriotic lesions", "result": "failed to decrease number and size of endometriotic lesions"}]}, {"smiles": "CS(=O)(=O)Nc1ccc([N+](=O)[O-])cc1OC1CCCCC1", "note": "[NS-398]", "values": [{"measurement": "Regression of endometriotic implant", "setting": "endometriotic implant", "result": "induced regression of endometriotic implant"}, {"measurement": "Survival, migration and invasion", "setting": "[5]", "result": "prevents survival, migration, and invasion; also recorded: prevents survival, migration and invasion"}]}, {"smiles": "C[C@]12CC[C@@H]3c4ccc(O)cc4C[C@@H](CCCCCCCCC[S+]([O-])CCCC(F)(F)C(F)(F)F)[C@H]3[C@@H]1CC[C@@H]2O", "note": "(some centres unmarked) [fulvestrant]", "values": [{"measurement": "Outcome of clinical trial", "setting": "estrogen receptor", "result": "discontinued due to unfavorable outcomes"}]}, {"smiles": "CC(C)Oc1ccc2c(=O)c3cc(C(=O)O)ccc3oc2c1", "note": "[AH6809, 6-Isopropoxy-9-oxoxanthene-2-carboxylic acid]", "values": [{"measurement": "Proliferation, dose response experiment", "setting": "[1]", "result": "decreased (P<0.05) proliferation"}, {"measurement": "Proliferation, dose response experiment", "setting": "[2]", "result": "decreased (P<0.05) proliferation"}, {"measurement": "cytotoxicity at 75 μM", "setting": "[6]; 12Z endometriotic epithelial cells, 12Z cells", "result": "~55", "unit": "%"}, {"measurement": "cytotoxicity at 75 μM", "setting": "[6]; 22B endometriotic stromal cells, 22B cells", "result": "~45", "unit": "%"}, {"measurement": "Induced apoptosis (TUNEL, flow cytometry)", "setting": "[3]", "result": "~45", "unit": "%"}, {"measurement": "Induced apoptosis (TUNEL, flow cytometry)", "setting": "[4]", "result": "~55", "unit": "%"}]}, {"smiles": "O=C(c1ccc(OCCN2CCCCC2)cc1)c1c(-c2ccc(O)cc2)sc2cc(O)ccc12", "note": "[raloxifene]", "values": [{"measurement": "Outcome of clinical trial", "setting": "estrogen receptor", "result": "discontinued due to unfavorable outcomes"}]}, {"smiles": "CS(=O)(=O)c1ccc(C2=C(c3ccccc3)C(=O)OC2)cc1", "note": "[rofecoxib]", "values": [{"measurement": "Pelvic pain symptoms", "setting": "[7]", "result": "effectively suppressed the pelvic pain symptoms"}]}, {"smiles": "CCNC(=O)[C@@H]1CCCN1C(=O)[C@H](CCCNC(=N)N)NC(=O)[C@H](CC(C)C)NC(=O)[C@@H](CC(C)C)NC(=O)[C@H](Cc1ccc(O)cc1)NC(=O)[C@H](CO)NC(=O)[C@H](Cc1c[nH]c2ccccc12)NC(=O)[C@H](Cc1c[nH]cn1)NC(=O)[C@@H]1CCC(=O)N1", "note": "[leuprolide acetate]", "values": [{"measurement": "Expression of COX-2 and p450 aromatase", "setting": "[8]", "result": "decreased expression of COX-2 along with p450 aromatase"}]}, {"smiles": "O=C(O)CC/C=C\\CC[C@H]1[C@H](N2CCOCC2)C(=O)C[C@H]1OCc1ccc(-c2ccccc2)cc1", "note": "(relative stereo) [AH23848, (4Z)-7-[(rel-1S,2S,5R)-5-((1,1′-Biphenyl-4-yl)methoxy)-2-(4-morpholinyl)-3-oxocyclopentyl]-4-heptenoic acid]", "values": [{"measurement": "Proliferation, dose response experiment", "setting": "[1]", "result": "decreased (P<0.05) proliferation"}, {"measurement": "Proliferation, dose response experiment", "setting": "[2]", "result": "decreased (P<0.05) proliferation"}, {"measurement": "Decrease of cell viability", "setting": "[9]", "result": "~45", "unit": "%"}, {"measurement": "Decrease of cell viability", "setting": "[10]", "result": "~55", "unit": "%"}, {"measurement": "Induced apoptosis (TUNEL, flow cytometry)", "setting": "[3]", "result": "~45", "unit": "%"}, {"measurement": "Induced apoptosis (TUNEL, flow cytometry)", "setting": "[4]", "result": "~55", "unit": "%"}]}]}
